Where two headings read alike, the source gives them in different places.
Key:
INS-1E cells [1] = test: cells; assay type: cell-based, rat
INS-1E cells [2] = assay type: cell-based, rat
[3] = test system: endothelial tube formation in co-cultures of ECFCs and ADSCs treated with VEGF; test: cells; assay type: cell-based, human
[4] = test system: nuclear β-catenin in C2C12 cells; test: cells; assay type: cell-based; conditions: concentration response
[5] = test system: alkaline phosphatase (ALP) activity in C2C12 cells; assay type: cell-based; conditions: concentration response
NCI-H716 cells = test: cells; assay type: cell-based, Human; conditions: concentration response
STC-1 cell line = assay type: cell-based, mouse; conditions: concentration response
HeLa cells = test: cells; assay type: cell-based
DLD-1 = test: cells; assay type: cell-based
SW480 = test: cells; assay type: cell-based
HCT116 = test: cells; assay type: cell-based
Colo320 = test: cells; assay type: cell-based; conditions: basal
HT-29 = test: cells; assay type: cell-based
RKO = test: cells; assay type: cell-based
SNU-C1 = test: cells; assay type: cell-based
hp70S6K1 (RPS6KB1) = target: T1, hp70S6K1 (RPS6KB1) (Homo sapiens, UniProt P23443); test: Cerep LANCE kinase assay hp70S6K1 (S1 assay 31); assay type: biochemical
T1 construct: purchased Cerep (LANCE kinase assay platform, contract assay)

hKDR = target: T2, hKDR (Homo sapiens, UniProt P35968); test: Cerep LANCE kinase assay hKDR (S1 assay 32); assay type: biochemical
T2 construct: purchased Cerep (LANCE kinase assay platform, contract assay)

hJAK2 = target: T3, hJAK2 (Homo sapiens, UniProt O60674); test: Cerep LANCE kinase assay hJAK2 (S1 assay 33); assay type: biochemical
T3 construct: purchased Cerep (LANCE kinase assay platform, contract assay)

hGSK3b = target: T4, hGSK3b (Homo sapiens, UniProt P49841); test: Cerep LANCE kinase assay hGSK3b (S1 assay 34); assay type: biochemical
T4 construct: purchased Cerep (LANCE kinase assay platform, contract assay)

hFLT3 = target: T5, hFLT3 (Homo sapiens, UniProt P36888); test: Cerep LANCE kinase assay hFLT3 (S1 assay 35); assay type: biochemical
T5 construct: purchased Cerep (LANCE kinase assay platform, contract assay)

[6] = test system: ECFC/ADSC co-culture cell nuclei number
[7] = test system: HCT116 cells treated with a GSK3β inhibitor; test: cells; assay type: cell-based
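Throughout, for 5mMGluc INS1E SecretionMod IC50/EC50: secreted insulin quantified by homogeneous immunoassay.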
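Throughout, for IC50/EC50, 5mMGluc INS1E SecretionMod (assay number 8): secreted insulin quantified by homogeneous immunoassay.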

T5 sequence (P36888 27-993): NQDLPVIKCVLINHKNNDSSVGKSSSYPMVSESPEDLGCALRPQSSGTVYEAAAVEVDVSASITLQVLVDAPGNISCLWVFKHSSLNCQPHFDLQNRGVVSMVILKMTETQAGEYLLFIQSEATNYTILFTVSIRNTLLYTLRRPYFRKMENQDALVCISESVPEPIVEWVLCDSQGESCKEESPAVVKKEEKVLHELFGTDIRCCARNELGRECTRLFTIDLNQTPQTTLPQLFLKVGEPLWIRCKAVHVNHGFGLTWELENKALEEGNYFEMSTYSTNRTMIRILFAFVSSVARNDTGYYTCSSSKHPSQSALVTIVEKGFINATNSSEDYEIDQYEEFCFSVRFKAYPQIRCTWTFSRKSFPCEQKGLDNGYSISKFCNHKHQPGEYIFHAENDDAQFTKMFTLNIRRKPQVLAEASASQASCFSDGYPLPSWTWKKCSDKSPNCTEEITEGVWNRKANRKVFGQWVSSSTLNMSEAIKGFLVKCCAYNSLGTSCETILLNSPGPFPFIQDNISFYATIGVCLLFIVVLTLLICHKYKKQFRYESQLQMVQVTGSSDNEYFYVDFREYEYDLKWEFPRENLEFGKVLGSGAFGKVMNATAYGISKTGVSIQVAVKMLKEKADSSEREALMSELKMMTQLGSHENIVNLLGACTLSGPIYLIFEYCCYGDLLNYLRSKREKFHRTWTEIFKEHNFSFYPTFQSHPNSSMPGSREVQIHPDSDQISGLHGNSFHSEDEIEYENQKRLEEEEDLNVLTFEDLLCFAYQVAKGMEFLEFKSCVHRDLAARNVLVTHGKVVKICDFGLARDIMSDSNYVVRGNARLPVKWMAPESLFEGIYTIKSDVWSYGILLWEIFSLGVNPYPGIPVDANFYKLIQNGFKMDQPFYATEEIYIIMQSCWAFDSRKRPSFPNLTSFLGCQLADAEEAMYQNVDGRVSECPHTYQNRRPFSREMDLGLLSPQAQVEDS
T3 sequence (O60674 whole entry): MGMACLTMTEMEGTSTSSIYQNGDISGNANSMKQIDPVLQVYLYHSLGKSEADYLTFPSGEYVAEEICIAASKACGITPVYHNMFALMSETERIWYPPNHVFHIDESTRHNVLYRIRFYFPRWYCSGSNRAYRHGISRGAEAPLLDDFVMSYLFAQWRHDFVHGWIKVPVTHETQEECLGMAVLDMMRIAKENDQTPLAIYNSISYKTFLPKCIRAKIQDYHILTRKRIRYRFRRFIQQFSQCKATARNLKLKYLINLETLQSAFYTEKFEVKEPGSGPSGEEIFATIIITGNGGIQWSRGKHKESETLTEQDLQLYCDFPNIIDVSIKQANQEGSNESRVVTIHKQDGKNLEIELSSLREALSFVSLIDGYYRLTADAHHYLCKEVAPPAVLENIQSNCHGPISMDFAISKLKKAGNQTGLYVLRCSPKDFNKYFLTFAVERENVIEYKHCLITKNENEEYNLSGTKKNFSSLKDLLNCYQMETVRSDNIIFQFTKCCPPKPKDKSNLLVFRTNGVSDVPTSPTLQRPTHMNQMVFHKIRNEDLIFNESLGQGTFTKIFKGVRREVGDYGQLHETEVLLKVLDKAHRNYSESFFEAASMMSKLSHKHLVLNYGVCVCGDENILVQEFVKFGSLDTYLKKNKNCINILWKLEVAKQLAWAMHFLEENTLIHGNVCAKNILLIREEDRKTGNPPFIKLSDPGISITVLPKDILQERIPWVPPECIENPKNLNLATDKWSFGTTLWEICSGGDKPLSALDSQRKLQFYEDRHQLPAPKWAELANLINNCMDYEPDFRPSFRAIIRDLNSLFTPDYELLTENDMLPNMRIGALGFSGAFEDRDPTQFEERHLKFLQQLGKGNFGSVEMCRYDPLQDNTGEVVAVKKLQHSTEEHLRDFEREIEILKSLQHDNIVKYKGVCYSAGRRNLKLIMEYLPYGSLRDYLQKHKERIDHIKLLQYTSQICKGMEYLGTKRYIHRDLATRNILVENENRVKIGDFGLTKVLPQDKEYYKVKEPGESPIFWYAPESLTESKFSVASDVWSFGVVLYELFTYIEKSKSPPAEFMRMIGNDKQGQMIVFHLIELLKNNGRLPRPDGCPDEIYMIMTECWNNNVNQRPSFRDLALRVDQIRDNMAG
T1 sequence (P23443 whole entry): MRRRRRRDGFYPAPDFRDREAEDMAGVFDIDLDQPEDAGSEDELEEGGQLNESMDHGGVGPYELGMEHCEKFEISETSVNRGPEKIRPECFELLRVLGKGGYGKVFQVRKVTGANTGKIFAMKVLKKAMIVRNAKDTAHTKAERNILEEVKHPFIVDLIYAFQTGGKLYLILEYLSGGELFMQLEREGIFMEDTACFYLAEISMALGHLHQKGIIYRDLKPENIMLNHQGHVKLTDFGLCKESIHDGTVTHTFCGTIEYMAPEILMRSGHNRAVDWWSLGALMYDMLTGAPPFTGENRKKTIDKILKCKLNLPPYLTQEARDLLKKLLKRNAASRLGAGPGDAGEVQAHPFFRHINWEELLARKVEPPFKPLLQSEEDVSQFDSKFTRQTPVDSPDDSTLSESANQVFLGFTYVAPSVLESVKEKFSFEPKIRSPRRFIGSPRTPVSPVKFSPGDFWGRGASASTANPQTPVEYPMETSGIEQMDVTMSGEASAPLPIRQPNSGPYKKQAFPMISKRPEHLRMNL
T2 sequence (P35968 20-1356): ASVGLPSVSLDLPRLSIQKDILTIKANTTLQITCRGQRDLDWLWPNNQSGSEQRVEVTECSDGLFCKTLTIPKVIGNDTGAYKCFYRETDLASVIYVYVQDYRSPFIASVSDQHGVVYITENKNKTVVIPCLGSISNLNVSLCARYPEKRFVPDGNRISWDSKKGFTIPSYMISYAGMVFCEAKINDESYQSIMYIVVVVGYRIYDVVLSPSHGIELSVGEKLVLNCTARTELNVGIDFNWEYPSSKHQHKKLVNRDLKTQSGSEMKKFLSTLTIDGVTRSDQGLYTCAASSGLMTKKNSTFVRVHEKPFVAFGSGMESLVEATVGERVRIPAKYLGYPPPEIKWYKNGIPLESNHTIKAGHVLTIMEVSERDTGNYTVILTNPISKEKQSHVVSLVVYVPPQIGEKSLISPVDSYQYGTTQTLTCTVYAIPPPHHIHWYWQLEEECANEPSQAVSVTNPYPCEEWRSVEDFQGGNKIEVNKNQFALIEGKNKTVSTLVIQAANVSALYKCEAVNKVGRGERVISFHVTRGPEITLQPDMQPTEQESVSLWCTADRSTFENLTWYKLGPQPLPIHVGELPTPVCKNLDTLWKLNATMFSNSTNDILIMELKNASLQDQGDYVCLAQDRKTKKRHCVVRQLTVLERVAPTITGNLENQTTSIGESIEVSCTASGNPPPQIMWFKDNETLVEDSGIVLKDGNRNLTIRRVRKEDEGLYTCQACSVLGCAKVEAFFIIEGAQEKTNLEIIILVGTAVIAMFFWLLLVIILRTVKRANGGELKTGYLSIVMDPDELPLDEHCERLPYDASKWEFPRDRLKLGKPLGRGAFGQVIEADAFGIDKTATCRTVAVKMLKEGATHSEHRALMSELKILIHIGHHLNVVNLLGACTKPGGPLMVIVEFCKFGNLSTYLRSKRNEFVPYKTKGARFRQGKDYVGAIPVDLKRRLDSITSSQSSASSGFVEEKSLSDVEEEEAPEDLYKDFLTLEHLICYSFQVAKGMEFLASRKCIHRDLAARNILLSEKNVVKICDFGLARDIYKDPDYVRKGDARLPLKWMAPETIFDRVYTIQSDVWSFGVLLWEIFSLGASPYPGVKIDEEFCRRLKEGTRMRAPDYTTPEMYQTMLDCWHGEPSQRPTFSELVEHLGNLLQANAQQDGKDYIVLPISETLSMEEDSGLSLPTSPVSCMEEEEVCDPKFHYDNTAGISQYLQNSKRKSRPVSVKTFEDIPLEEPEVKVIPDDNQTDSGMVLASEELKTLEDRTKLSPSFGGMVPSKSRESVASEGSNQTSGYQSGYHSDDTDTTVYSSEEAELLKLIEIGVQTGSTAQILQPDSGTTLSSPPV
T4 sequence (P49841 whole entry): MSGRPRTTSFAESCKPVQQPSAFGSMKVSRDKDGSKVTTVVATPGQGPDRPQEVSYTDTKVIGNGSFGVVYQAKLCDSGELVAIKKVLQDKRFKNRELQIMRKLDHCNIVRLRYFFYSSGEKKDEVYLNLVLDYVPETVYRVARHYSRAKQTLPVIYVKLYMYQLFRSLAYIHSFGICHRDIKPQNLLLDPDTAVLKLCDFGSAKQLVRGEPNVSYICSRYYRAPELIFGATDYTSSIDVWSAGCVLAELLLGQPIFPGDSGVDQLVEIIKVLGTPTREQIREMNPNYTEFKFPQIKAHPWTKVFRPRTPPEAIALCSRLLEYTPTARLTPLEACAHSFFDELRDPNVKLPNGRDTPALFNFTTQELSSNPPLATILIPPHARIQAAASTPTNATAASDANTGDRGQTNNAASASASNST

## Nc1c2c(nc3ccccc13)CCCC2 [NCGC00015054-12]
INS-1E cells [1]; assay number 8, 5 mM glucose
  5mMGluc_INS1E SecretionMod IC50/EC50: 17.6112 µM
INS-1E cells [2]; assay number 9, 0.1 mM glucose
  0.1mMGluc_INS1E SecretionMod Act IC50/EC50: > 33.33 µM

## CN(C)CC[C@@H](c1ccc(Br)cc1)c1ccccn1.O=C(O)/C=C\C(=O)O [NCGC00015146-11]
INS-1E cells [1]; assay number 8, 5 mM glucose
  5mMGluc_INS1E SecretionMod IC50/EC50: 3.76 µM
INS-1E cells [2]; assay number 9, 0.1 mM glucose
  0.1mMGluc_INS1E SecretionMod Act IC50/EC50: 6.368 µM

## c1cc(CN2CCCCC2)cc(OCCCNc2nc3ccccc3s2)c1 [NCGC00015957-06]
INS-1E cells [1]; assay number 8, 5 mM glucose
  5mMGluc_INS1E SecretionMod IC50/EC50: > 11.11 µM
INS-1E cells [2]; assay number 9, 0.1 mM glucose
  0.1mMGluc_INS1E SecretionMod Act IC50/EC50: > 33.33 µM

## NC(=NCCCCCCN=C(N)/N=C(\N)Nc1ccc(Cl)cc1)/N=C(\N)Nc1ccc(Cl)cc1 [NCGC00016246-09]
[3]
  IC50/EC50, VEGF_ADSC\ECFC Angio CD31 TubeArea (assay number 2): 1.3455 µM
[4]
  IC50/EC50, WntCondMedia_bCatenin C2C12 (assay number 5): > 20 µM
[5]
  IC50/EC50, WntCondMedia_Alk Phos C2C12 (assay number 6): > 20 µM
INS-1E cells [1]; 5 mM glucose
  IC50/EC50, 5mMGluc_INS1E SecretionMod (assay number 8): 25.1792 µM
NCI-H716 cells
  IC50/EC50, hNCI-H716 GLP1 Secretion (assay number 12): 26.2027 µM
STC-1 cell line
  IC50/EC50, mSTC-1 GLP1 Secretion (assay number 13): 10.3287 µM
HeLa cells; 2N
  IC50/EC50, Hela CellCycMod PI 2N (assay number 14): > 10 µM
HeLa cells; 4N
  IC50/EC50, Hela CellCycMod PI 4N (assay number 16): > 10 µM
HeLa cells; Cell Number
  IC50/EC50, Hela CellCycMod PI Cell Number (assay number 18): 6.7072 µM
HeLa cells; MI
  IC50/EC50, Hela CellCycMod PI MI (assay number 17): > 10 µM
DLD-1; basal
  IC50/EC50, Basal_Viability ATP DLD-1 (assay number 23): 2.8031 µM
SW480; basal
  IC50/EC50, Basal_Viability ATP SW480 (assay number 24): 5.6664 µM
HCT116; basal
  IC50/EC50, Basal_Viability ATP HCT116 (assay number 25): 4.3853 µM
Colo320
  IC50/EC50, Basal_Viability ATP Colo 320 (assay number 27): 5.1631 µM
HT-29; basal
  IC50/EC50, Basal_Viability ATP HT-29 (assay number 28): 3.7852 µM
RKO; basal
  IC50/EC50, Basal_Viability ATP RKO (assay number 29): 4.5801 µM
SNU-C1; basal
  IC50/EC50, Basal_Viability ATP SNU-C1 (assay number 30): 0.4386 µM
hp70S6K1 (RPS6KB1)
  IC50/EC50, hp70S6K1 LANCE (assay number 31): > 20 µM
hKDR
  IC50/EC50, hKDR LANCE (assay number 32): > 20 µM
hJAK2
  IC50/EC50, hJAK2 LANCE (assay number 33): > 20 µM
hGSK3b
  IC50/EC50, hGSK3b LANCE (assay number 34): > 20 µM
hFLT3
  IC50/EC50, hFLT3 LANCE (assay number 35): > 20 µM
[6]
  IC50/EC50, VEGF_ADSC\ECFC Angio Hoechst NucArea (assay number 3): > 10 µM

## Cl.N[C@@H]1C[C@H]1c1ccccc1 [NCGC00016598-02]
INS-1E cells [1]; assay number 8, 5 mM glucose
  5mMGluc_INS1E SecretionMod IC50/EC50: > 33.33 µM
INS-1E cells [2]; assay number 9, 0.1 mM glucose
  0.1mMGluc_INS1E SecretionMod Act IC50/EC50: > 33.33 µM

## COc1cc(C(=O)OCCCN2CCCN(CCCOC(=O)c3cc(OC)c(OC)c(OC)c3)CC2)cc(OC)c1OC [NCGC00016747-07]
INS-1E cells [1]; assay number 8, 5 mM glucose
  5mMGluc_INS1E SecretionMod IC50/EC50: 10.1571 µM
INS-1E cells [2]; assay number 9, 0.1 mM glucose
  0.1mMGluc_INS1E SecretionMod Act IC50/EC50: 18.0188 µM

## CCOc1cc(CC(=O)N[C@@H](CC(C)C)c2ccccc2N2CCCCC2)ccc1C(=O)O [NCGC00016978-04]
INS-1E cells [1]; assay number 8, 5 mM glucose
  5mMGluc_INS1E SecretionMod IC50/EC50: 0.02704 µM
INS-1E cells [2]; assay number 9, 0.1 mM glucose
  0.1mMGluc_INS1E SecretionMod Act IC50/EC50: 0.1358 µM

## CN1CCc2cc(Cl)c(O)cc2[C@H]2c3ccccc3CC[C@@H]21 [NCGC00092362-02]
INS-1E cells [1]; assay number 8, 5 mM glucose
  5mMGluc_INS1E SecretionMod IC50/EC50: 15.3649 µM
INS-1E cells [2]; assay number 9, 0.1 mM glucose
  0.1mMGluc_INS1E SecretionMod Act IC50/EC50: > 33.33 µM

## Cc1c(C)n(Cc2ccccc2)c2ccc(C(=O)OCCN(C)C)cc12 [NCGC00160412-04]
INS-1E cells [1]
  5mMGluc_INS1E SecretionMod IC50/EC50: 3.845 µM
INS-1E cells [2]
  0.1mMGluc_INS1E SecretionMod Act IC50/EC50: 14.9139 µM
DLD-1
  Basal_Viability ATP DLD-1 IC50/EC50: 11.2721 µM
SW480
  Basal_Viability ATP SW480 IC50/EC50: 8.7786 µM
HCT116
  Basal_Viability ATP HCT116 IC50/EC50: 11.7611 µM
[7]
  GSK3b inh pretreated_Viability ATP HCT116 IC50/EC50: 5.474 µM
HT-29
  Basal_Viability ATP HT-29 IC50/EC50: > 6.6667 µM
RKO
  Basal_Viability ATP RKO IC50/EC50: 12.7694 µM
SNU-C1
  Basal_Viability ATP SNU-C1 IC50/EC50: 11.9645 µM

## CCN(CC)CCNC(C(=O)OCCC(C)C)c1ccccc1 (stereo not shown) [NCGC00164526-02]
INS-1E cells [1]; assay number 8, 5 mM glucose
  5mMGluc_INS1E SecretionMod IC50/EC50: 24.7717 µM
INS-1E cells [2]; assay number 9, 0.1 mM glucose
  0.1mMGluc_INS1E SecretionMod Act IC50/EC50: > 33.33 µM

## C#CCOC(C(=O)OCCN(C)C)(c1ccccc1)c1ccccc1 [NCGC00164558-02]
INS-1E cells [1]; assay number 8, 5 mM glucose
  5mMGluc_INS1E SecretionMod IC50/EC50: 9.257 µM
INS-1E cells [2]; assay number 9, 0.1 mM glucose
  0.1mMGluc_INS1E SecretionMod Act IC50/EC50: 9.666 µM

## Cl.NCC1CCC(C(=O)Oc2ccc(CCC(=O)O)cc2)CC1 (stereo not shown) [NCGC00164584-03]
INS-1E cells [1]; assay number 8, 5 mM glucose
  5mMGluc_INS1E SecretionMod IC50/EC50: > 33.33 µM
INS-1E cells [2]; assay number 9, 0.1 mM glucose
  0.1mMGluc_INS1E SecretionMod Act IC50/EC50: > 33.33 µM

— publication PMC4503722, “Novel Phenotypic Outcomes Identified for a Public Collection of Approved Drugs from a Publicly Accessible Panel of Assays” (PLoS ONE, 2015)
